Here are results for four compounds from patent US20090247770A1, “PROCESS FOR MAKING LACTAM TACHYKININ RECEPTOR ANTAGONISTS” (priority 2006, published 2009).

Structures can show the parent of a compound that is named as a salt. Where two headings read alike, the source gives them in different places.

The nature of series [1]: Solid state physical stability (form conversion) of crystalline salts. The class given is physicochemical. To be noted: No form conversion after 1 week at 40° C./ambient RH, 40° C./75% RH, and 80° C.
A short description of series [2]: Relative thermodynamic stability of crystal forms. Conditions: comparison of besylate crystal forms. It counts as physicochemical. The source says: The benzyloxycarbonyl (Cbz) group of 16 was cleaved to give 1 by a noble transition metal, such as Pd/C, […], Pt/C, catalyzed hydrogenation in an alcoholic solvent such as methanol, ethanol, or the like, or by acidic solvolysis with a hydrogen halide such as HCl, HBr, or HI or an equivalent such as combination of a metal or an ammonium halide and an acid trifluoroacetic acid, methanesulfonic acid, or the like in organic solvent such as acetonitrile, toluene, or acetic acid at a temperature from about 0° C. to about 60° C. If this deprotection of Cbz group was carried out under acidic condition, 1 could be obtained from 14a,b or 15a,b in a one-pot manner. Benzyl halide, which was a side product of deprotection of Cbz group, was easily removed from the reaction mixture by back-extraction with heptane. Free base of 1 was difficult to be extracted from the aqueous layer to organic layer because of its amphipathic physical property. […] Crude free base was purified by crystallization as a benzenesulfonate salt from IPA-IPAc-heptane solvent system. The benzenesulfonate salt has two crystal forms Form I or II. […] The benzenesulfonate salt can be recrystallized from acetonitrile and alcohol such as methanol, ethanol, or isopropanol, if necessary.

Series [3] is described as follows: Solid state chemical stability of crystalline salts. It counts as physicochemical.
Series [4] in a line: Hygroscopicity of crystalline salts of the compound of Formula Ia. The class given is physicochemical.

`C[C@@H](O[C@H]1CC[C@@H]([C@H]2C[C@@](C)(N)C(=O)N2)[C@@H]1c1ccc(F)cc1)c1cc(C(F)(F)F)cc(C(F)(F)F)c1` [Succinate]: the “Solid State Physical Stability” value in series [1] is reported as “Stable”.

Usually melting point stands for the temperature of the solid-liquid transition. In the case of `C[C@@H](O[C@H]1CC[C@@H]([C@H]2C[C@@](C)(N)C(=O)N2)[C@@H]1c1ccc(F)cc1)c1cc(C(F)(F)F)cc(C(F)(F)F)c1` (as salt: succinate) (hydrate or solvate), the melting point stood at 187 °C.

In the case of `C[C@@H](O[C@H]1CC[C@@H]([C@H]2C[C@@](C)(N)C(=O)N2)[C@@H]1c1ccc(F)cc1)c1cc(C(F)(F)F)cc(C(F)(F)F)c1` [Besylate Anhydrous Form II], the “Thermodynamic stability relative to other crystal form” value in series [2] is “more thermodynamically stable than Form 1”. In series [1], the “Solid State Physical Stability” value is reported as “Stable^3”. The “Solid State Chemical Stability” value in series [3] is listed as “Stable”.

As for `C[C@@H](O[C@H]1CC[C@@H]([C@H]2C[C@@](C)(N)C(=O)N2)[C@@H]1c1ccc(F)cc1)c1cc(C(F)(F)F)cc(C(F)(F)F)c1` [Besylate Anhydrous Form I], in series [4], the “Hygroscopicity (25° C.)” value was “consistently non-hygroscopic”. In addition, the “Thermodynamic stability relative to other crystal form” value in series [2] is “more thermodynamically stable than form II”. In addition, the “Solid State Physical Stability” value in series [1] is “Stable^3”; in series [1] (listed as anhydrous form I), “physically and chemically stable”. The “Solid State Chemical Stability” value in series [3] was “Stable”; in series [3] (listed as anhydrous form I), “physically and chemically stable”.
